The conditions of the data set: Crystal; Boetius hot stage apparatus.

± gives the expanded uncertainty stated by the source.

Turning to `CNC(=O)[C@H](Cc1cnc[nH]1)NC(C)=O` [N-acetyl-N'-methyl-L-alpha-histidinamide], the Normal melting temperature was -11 ± 6 °C.

The values are drawn from the NIST ThermoML archive (doi:10.1016/j.tca.2009.12.017).
